Test results published in patent US20260248800A1, “FERROPTOSIS INHIBITORS AND USES THEREOF” (UNIVERSITY OF OTTAWA, priority 2022, published 2026).
Read-outs that look alike come from different tables or passages of the source.

Tests used:
[1] = MeOAMVN-initiated co-autoxidation of STY-BODIPY and egg PC liposomes (FENIX); type: biochemical; settings: for n (radical-trapping stoichiometry): MeOAMVN-initiated co-autoxidation of STY-BODIPY and egg PC liposomes; for kinh^lip (predicted/estimated): estimated from kinh^0 and effective β2^H of egg PC liposomes; for predicted increase in kinh^lip relative to PNX: predicted/estimated kinh^lip vs PNX
[2] = test system: Pfa-1 mouse embryonic fibroblasts (MEFs); settings: RSL3-induced cell death (150 nM for 5 hours), AquaBluer; for EC50: read-out: Pfa-1 MEF Ferroptosis EC50
[3] = test system: Pfa-1 mouse embryonic fibroblasts (MEFs); experiment: cells; settings: Fibroblast
[4] = H-bond acidity (α2^H) of the RTA by 1H NMR; type: physicochemical; settings: estimated from the 1H NMR chemical shift difference of the amine proton in DMSO-d6 and benzene-d6
[5] = apparent inhibition rate constant, MeOAMVN-initiated autoxidation of egg PC liposomes, determined by fluorescence
[6] = 5 h, read-out: Pfa-1 MEF Ferroptosis EC50, RSL3-induced cell death (150 nM for 5 hours), AquaBluer
[7] = Table 6, from survival curve of RSL3 induced ferroptosis of pfa-1 MEFS
[8] = apparent inhibition rate constant, MeOAMVN-initiated autoxidation of egg PC liposomes, determined by absorbance (STY-BODIPY 10-20 μM, 565 nm)
[9] = predicted from log kinh^0, α2^H and β2^H=0.69 using Eq. 4 (too reactive to be determined directly)

| Structure (SMILES) | n (radical-trapping stoichiometry) [1] | kinh^lip [1, 5] | EC50 [3, 6] [µM] | α2^H [4] | also measured |
| --- | --- | --- | --- | --- | --- |
| CC(C)(C)c1ccc2c(c1)Nc1cc(C(F)(F)F)ccc1O2 [Compound 8, 2-tert-Butyl-8-trifluoromethylphenoxazine] | 2.3 ± 0.1 | (64 ± 9) 10^5 M^−1s^−1 | 0.0056 ± 0.0003 | – | Pfa-1 MEF Ferroptosis EC50 [2]: single-digit nanomolar potency; EC50 [3, 7]: 0.0056 ± 0.0003 µM |
| CC(c1ccc2c(c1)Nc1ccc(C(F)(F)F)cc1O2)S(=O)(=O)NCCN(C)C (stereo not shown) [Compound 44, N-(2-(dimethylamino)ethyl)-1-(7-(trifluoromethyl)-10H-phenoxazin-2-yl)ethanesulfonamide] | – | – | 0.0022 ± 0.0001 | – | Pfa-1 MEF Ferroptosis EC50 [2]: single-digit nanomolar potency; EC50 [3, 7]: 0.0022 ± 0.0001 µM |
| N#Cc1ccc2c(c1)Oc1ccccc1N2 [Compound 20, 3-cyanophenoxazine] | 3.6 ± 0.1 | (27 ± 2) 10^5 M^−1s^−1 | 0.058 ± 0.001 | 0.56 | – |
| COc1ccc2c(c1)Oc1cc([N+](=O)[O-])ccc1N2 [Compound 17, 3-nitro-7-methoxyphenoxazine] | 2.9 ± 0.2 | – | 0.031 ± 0.001 | 0.60 | kinh^lip [1, 8]: (61 ± 4)e 10^5 M^−1s^−1 |
| c1ccc2c(c1)Nc1cc3ccccc3cc1S2 [Compound 5, 12H-Benzo[b]phenothiazine, reference compound] | 1.9 ± 0.1 | (51 ± 3) 10^5 M^−1s^−1 | 0.0078 ± 0.0002 | 0.40 | – |
| N#Cc1ccc2c(c1)Oc1cc(C=O)ccc1N2 [Compound 14, 3-Cyano-7-formylphenoxazine] | – | (7.1 ± 0.1) 10^5 M^−1s^−1 | – | 0.64 | EC50 ([3]; 5 h, read-out: Pfa-1 MEF Ferroptosis EC50): 0.24 ± 0.016 µM |
| COc1ccc2c(c1)Oc1cc(OC)ccc1N2 [Compound 40, 3,7-dimethoxyphenoxazine] | – | – | 0.011 | 0.40 | kinh^lip (predicted/estimated) [1]: 6e+06 M⁻¹ s⁻¹; kinh^lip [1, 9]: 6530 ^f 10^5 M^−1s^−1 |
| CC(c1ccc2c(c1)Nc1ccc(C(F)(F)F)cc1O2)S(=O)(=O)N1CCNCC1 (stereo not shown) [Compound 46, 2-(1-(piperazin-1-ylsulfonyl)ethyl)-7-(trifluoromethyl)-OH-phenoxazine] | – | – | 0.003 ± 0.0001 | – | Pfa-1 MEF Ferroptosis EC50 [2]: single-digit nanomolar potency; EC50 [3, 7]: 0.003 ± 0.0001 µM |
| CC(C)(C)c1ccc2c(c1)Oc1ccc(C(F)(F)F)cc1N2 [Compound 7, 3-tert-Butyl-8-trifluoromethylphenoxazine] | 2.8 ± 0.1 | (75 ± 13) 10^5 M^−1s^−1 | 0.0041 ± 0.0001 | – | Pfa-1 MEF Ferroptosis EC50 [2]: single-digit nanomolar potency; EC50 [3, 7]: 0.0041 ± 0.0001 µM |
| N#Cc1ccc2c(c1)Oc1cc([N+](=O)[O-])ccc1N2 [Compound 23, 3-cyano-7-nitrophenoxazine] | – | – | 0.455 ± 0.019 | 0.69 | kinh^lip [1, 8]: (1.6 ± 0.1)^e 10^5 M^−1s^−1 |
| O=[N+]([O-])c1ccc2c(c1)Sc1ccccc1N2 [Compound 28, 3-nitrophenothiazine, reference compound] | 2.0 ± 0.1 | (5.3 ± 0.3) 10^5 M^−1s^−1 | 0.14 ± 0.018 | 0.52 | – |
| Cc1ccc2c(c1)Oc1cc([N+](=O)[O-])ccc1N2 [Compound 16, 3-Methyl-7-nitrophenoxazine] | 3.8 ± 0.3 | – | 0.015 ± 0.001 | 0.60 | kinh^lip [1, 8]: (23 ± 2)^e 10^5 M^−1s^−1 |
| COc1ccc2c(c1)Oc1ccccc1N2 [Compound 39, 3-methoxyphenoxazine] | – | – | 0.012 | 0.42 | kinh^lip [1, 9]: 1490 ^f 10^5 M^−1s^−1; predicted increase in kinh^lip relative to PNX [1]: 6.7 fold |
| CC(C)(C)c1ccc2c(c1)Nc1ccc(C(F)(F)F)cc1O2 [Compound 11, 2-tert-Butyl-7-trifluoromethylphenoxazine] | 2.6 ± 0.1 | (44 ± 3) 10^5 M^−1s^−1 | 0.0036 ± 0.0002 | – | Pfa-1 MEF Ferroptosis EC50 [2]: single-digit nanomolar potency; EC50 [3, 7]: 0.0036 ± 0.0002 µM |
| Cc1cc(C)c2c(c1)Nc1cc(C)cc(C)c1O2 [Compound 37, 2,4,6,8-Tetramethylphenoxazine] | – | – | 0.0096 ± 0.0002 | 0.39 | kinh^lip [1, 9]: 1500 ^f 10^5 M^−1s^−1 |
| CC(C)(C)c1ccc2c(c1)Oc1cc(C(F)(F)F)ccc1N2 [Compound 10, 3-tert-Butyl-7-trifluoromethylphenoxazine] | 2.8 ± 0.1 | (55 ± 10) 10^5 M^−1s^−1 | 0.0052 ± 0.0002 | – | Pfa-1 MEF Ferroptosis EC50 [2]: single-digit nanomolar potency; EC50 [3, 7]: 0.0052 ± 0.0002 µM |
| Cc1cc(C)c2c(c1)Oc1cc(C)cc(C)c1N2 [Compound 38, 1,3,7,9-Tetramethylphenoxazine] | – | – | 0.0076 ± 0.0002 | 0.10 | kinh^lip [1, 9]: 1500 ^f 10^5 M^−1s^−1 |
| Cc1ccc2c(c1)Oc1cc(C#N)ccc1N2 [Compound 21, 3-Methyl-7-cyanophenoxazine] | 3.5 ± 0.1 | (44 ± 6) 10^5 M^−1s^−1 | 0.022 ± 0.005 | 0.55 | – |
| CCN(CC)c1ccc2c(c1)Oc1cc([N+](=O)[O-])ccc1N2 [Compound 18, N,N-diethyl-3-amine-7-nitrophenoxazine] | 2.4 ± 0.4 | – | 0.014 ± 0.002 | 0.58 | kinh^lip [1, 8]: (177 ± 37)^e 10^5 M^−1s^−1 |
| FC(F)(F)c1ccc2c(c1)Sc1ccccc1N2 [Compound 26, 3-trifluoromethylphenothiazine, reference compound] | 2.6 ± 0.1 | (9.8 ± 0.5) 10^5 M^−1s^−1 | 0.041 ± 0.005 | 0.45 | – |
| FC(F)(F)c1ccc2c(c1)Nc1ccccc1S2 [Compound 25, reference compound] | 2.5 ± 0.1 | (19 ± 1) 10^5 M^−1s^−1 | – | 0.44 | EC50 [2]: 0.016 ± 0.001 µM |
| O=Cc1ccc2c(c1)Oc1cc(C=O)ccc1N2 [Compound 13, 3,7-Diformylphenoxazine] | 3.2 ± 0.1 | (10 ± 1) 10^5 M^−1s^−1 | 0.34 ± 0.049 | 0.63 | – |
| Cc1c(C)c2c(c(C)c1O)CCC(C)(C)O2 [PMC, 2,2,5,7,8-Pentamethyl-6-chromanol, reference compound] | (2) | (29 ± 2) 10^5 M^−1s^−1 | 0.36 ± 0.03 | 0.38 | kinh^lip (predicted/estimated) [1]: 35000 M⁻¹ s⁻¹; kinh^lip ([1]; measured in MeOAMVN-initiated autoxidation of egg PC liposomes): 29000 M⁻¹ s⁻¹ |
| Clc1ccc2c(c1)Nc1ccccc1S2 [Compound 24, reference compound] | 2.1 ± 0.1 | (39 ± 4) 10^5 M^−1s^−1 | – | 0.43 | EC50 [2]: 0.056 ± 0.01 µM |
| c1ccc2c(c1)Nc1cc3ccccc3cc1O2 [Compound 4, 12H-Benzo[b]phenoxazine] | 2.4 ± 0.1 | (101 ± 12) 10^5 M^−1s^−1 | 0.0052 ± 0.0009 | 0.49 | – |
| O=[N+]([O-])c1ccc2c(c1)Oc1ccccc1N2 [Compound 15, 3-nitrophenoxazine] | 2.2 ± 0.1 | – | 0.043 | 0.62 | kinh^lip [1, 8]: (10 ± 1)^e 10^5 M^−1s^−1 |
| COc1ccc2c(c1)Sc1cc(OC)ccc1N2 [Compound 32, 3,7-dimethoxyphenothiazine, reference compound] | – | – | 0.009 | 0.34 | kinh^lip [1, 9]: 840 ^f 10^5 M^−1s^−1; predicted increase in kinh^lip relative to PNX [1]: 3.8 fold |
| COc1ccc2c(c1)Oc1cc(C#N)ccc1N2 [Compound 22, 3-Methoxy-7-cyanophenoxazine] | 3.1 ± 0.3 | – | 0.042 ± 0.006 | 0.55 | kinh^lip [1, 8]: (133 ± 15)^e 10^5 M^−1s^−1 |
